From ChEMBL document CHEMBL5532725, “SARS-CoV-2 Main Protease Inhibitors That Leverage Unique Interactions with the Solvent Exposed S3 Site of the Enzyme” (ACS Med Chem Lett, 2024)

The compounds below were run against Replicase polyprotein 1ab (Severe acute respiratory syndrome coronavirus 2, UniProt P0DTD1) (assay: Inhibition of SARS-CoV-2 MPro preincubated for 30 mins followed by substrate addition by fluorescence based assay).
In the case of `CC1(C)[C@@H]2[C@@H](C(=O)N[C@H](C=O)C[C@@H]3CCNC3=O)N(C(=O)[C@H](CC3CCCCC3)NC(=O)OCc3ccccc3)C[C@@H]21`, the IC50 is reported as 250 nM.
In the case of `CC1(C)[C@@H]2[C@@H](C(=O)N[C@H](C=O)C[C@@H]3CCNC3=O)N(C(=O)OC(c3ccccc3)c3ccccc3)C[C@@H]21`, the IC50 is reported as 96 nM.
Work on `CC1(C)[C@@H]2[C@@H](C(=O)N[C@H](C=O)C[C@@H]3CCNC3=O)N(C(=O)OC(c3ccc(F)cc3)c3ccc(F)cc3)C[C@@H]21` yielded an IC50 of 94 nM.
In the case of `CC1(C)[C@@H]2[C@@H](C(=O)N[C@H](C#N)C[C@@H]3CCNC3=O)N(C(=O)[C@@H](NC(=O)C(F)(F)F)c3ccc(Cl)cc3)C[C@@H]21`, the IC50 is reported as 420 nM.
`CC1(C)[C@@H]2[C@@H](C(=O)N[C@H](C=O)C[C@@H]3CCNC3=O)N(C(=O)N(c3ccc(Cl)cc3)c3ccc(Cl)cc3)C[C@@H]21` showed an IC50 of 450 nM.
`CC1(C)[C@@H]2[C@@H](C(=O)N[C@H](C=O)C[C@@H]3CCNC3=O)N(C(=O)C(c3ccc(Cl)cc3)c3ccc(Cl)cc3)C[C@@H]21` gave an IC50 of 280 nM.
With `CC1(C)[C@@H]2[C@@H](C(=O)N[C@H](C=O)C[C@@H]3CCNC3=O)N(C(=O)C(Oc3ccc(Cl)cc3)Oc3ccc(Cl)cc3)C[C@@H]21` the IC50 was 280 nM.
